# Measured values reported in patent US20240368147A1, “CYCLIN K DEGRADER” (ADLAI NORTYE BIOPHARMA CO., LTD., priority 2021, published 2024).
# Target: T1, Cyclin K (CCNK) (Homo sapiens, UniProt O75909+Q9NYV4)
# T1 construct: total cell protein was extracted with RIPA cell lysis buffer; host or cells: HEK293
# Assay: Western blot detection of Cyclin K (CCNK) degradation
# Format: cell-based
# Settings: HEK293 cells, 1 μM, 6 hours, compared with the control
# Protocol: Western Blot Detection of Cyclin K (CCNK) Degradation
# Harvest HEK1293 cells (ATCC, cat #CRL-1573) and adjust the cell density to 1×10^6 cells per ml. Pour 1 ml of cell suspension per well into a 6-well plate and culture overnight. Take the compound stock solution and dilute it to the appropriate concentration with DMSO. Add the diluted compound into the cell wells using culture medium at a ratio of 1:1000 to ensure that the DMSO concentration in each well is 0.1%. At the same time, negative control wells were set, that is, complete culture medium containing 0.1% DMSO. After the compounds were treated and fixed at the concentrations shown in the figure and for different times, total cell protein was extracted with RIPA cell lysis buffer (Beyotime, cat #P0013B) added with PMSF. After protein quantification using the BCA protein quantification kit (Thermo Fisher, cat #A53225), each sample was subjected to subsequent SDS-PAGE and western blot experiments at a loading volume of 40 μg. The specific conditions are: after running the gel at 120V constant pressure for 90 minutes, transfer the film at a constant current of 320 mA for 60 minutes. Carry out antibody incubation according to the recommended dilution ratio and incubation time of the antibody. The information of the antibodies used in the experiment is as follows: Anti-GAPDH antibody (abcam, cat #ab9485), Anti-Cyclin K antibody (abcam, cat #ab85854), Goat anti-Rabbit IgG (H+L) Cross-Adsorbed Secondary Antibody, HRP (invitrogen, cat #G-21234). ECL luminescence solution (Thermo Fisher, cat #32209) was used to develop color and luminescence. A gel imaging system was used to analyze the final results.
# According to the above detection method, some compounds of the present disclosure were evaluated.
# T1 sequence (O75909 whole entry): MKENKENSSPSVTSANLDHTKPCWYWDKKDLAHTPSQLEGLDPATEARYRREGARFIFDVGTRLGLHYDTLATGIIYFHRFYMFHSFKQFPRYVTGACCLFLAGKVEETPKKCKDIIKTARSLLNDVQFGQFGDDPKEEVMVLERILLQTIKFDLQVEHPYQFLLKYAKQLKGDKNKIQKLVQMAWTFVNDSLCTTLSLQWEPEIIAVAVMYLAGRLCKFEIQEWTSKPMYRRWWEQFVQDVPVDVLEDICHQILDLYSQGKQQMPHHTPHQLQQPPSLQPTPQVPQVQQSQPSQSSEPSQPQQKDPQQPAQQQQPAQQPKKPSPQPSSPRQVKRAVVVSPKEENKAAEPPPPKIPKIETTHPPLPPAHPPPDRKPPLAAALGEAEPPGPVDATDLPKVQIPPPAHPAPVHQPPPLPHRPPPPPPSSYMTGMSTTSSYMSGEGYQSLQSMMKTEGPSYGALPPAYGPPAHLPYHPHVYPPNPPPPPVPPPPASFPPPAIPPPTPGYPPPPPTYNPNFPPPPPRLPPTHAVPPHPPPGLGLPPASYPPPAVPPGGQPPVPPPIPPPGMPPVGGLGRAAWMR
# T1 sequence (Q9NYV4 whole entry): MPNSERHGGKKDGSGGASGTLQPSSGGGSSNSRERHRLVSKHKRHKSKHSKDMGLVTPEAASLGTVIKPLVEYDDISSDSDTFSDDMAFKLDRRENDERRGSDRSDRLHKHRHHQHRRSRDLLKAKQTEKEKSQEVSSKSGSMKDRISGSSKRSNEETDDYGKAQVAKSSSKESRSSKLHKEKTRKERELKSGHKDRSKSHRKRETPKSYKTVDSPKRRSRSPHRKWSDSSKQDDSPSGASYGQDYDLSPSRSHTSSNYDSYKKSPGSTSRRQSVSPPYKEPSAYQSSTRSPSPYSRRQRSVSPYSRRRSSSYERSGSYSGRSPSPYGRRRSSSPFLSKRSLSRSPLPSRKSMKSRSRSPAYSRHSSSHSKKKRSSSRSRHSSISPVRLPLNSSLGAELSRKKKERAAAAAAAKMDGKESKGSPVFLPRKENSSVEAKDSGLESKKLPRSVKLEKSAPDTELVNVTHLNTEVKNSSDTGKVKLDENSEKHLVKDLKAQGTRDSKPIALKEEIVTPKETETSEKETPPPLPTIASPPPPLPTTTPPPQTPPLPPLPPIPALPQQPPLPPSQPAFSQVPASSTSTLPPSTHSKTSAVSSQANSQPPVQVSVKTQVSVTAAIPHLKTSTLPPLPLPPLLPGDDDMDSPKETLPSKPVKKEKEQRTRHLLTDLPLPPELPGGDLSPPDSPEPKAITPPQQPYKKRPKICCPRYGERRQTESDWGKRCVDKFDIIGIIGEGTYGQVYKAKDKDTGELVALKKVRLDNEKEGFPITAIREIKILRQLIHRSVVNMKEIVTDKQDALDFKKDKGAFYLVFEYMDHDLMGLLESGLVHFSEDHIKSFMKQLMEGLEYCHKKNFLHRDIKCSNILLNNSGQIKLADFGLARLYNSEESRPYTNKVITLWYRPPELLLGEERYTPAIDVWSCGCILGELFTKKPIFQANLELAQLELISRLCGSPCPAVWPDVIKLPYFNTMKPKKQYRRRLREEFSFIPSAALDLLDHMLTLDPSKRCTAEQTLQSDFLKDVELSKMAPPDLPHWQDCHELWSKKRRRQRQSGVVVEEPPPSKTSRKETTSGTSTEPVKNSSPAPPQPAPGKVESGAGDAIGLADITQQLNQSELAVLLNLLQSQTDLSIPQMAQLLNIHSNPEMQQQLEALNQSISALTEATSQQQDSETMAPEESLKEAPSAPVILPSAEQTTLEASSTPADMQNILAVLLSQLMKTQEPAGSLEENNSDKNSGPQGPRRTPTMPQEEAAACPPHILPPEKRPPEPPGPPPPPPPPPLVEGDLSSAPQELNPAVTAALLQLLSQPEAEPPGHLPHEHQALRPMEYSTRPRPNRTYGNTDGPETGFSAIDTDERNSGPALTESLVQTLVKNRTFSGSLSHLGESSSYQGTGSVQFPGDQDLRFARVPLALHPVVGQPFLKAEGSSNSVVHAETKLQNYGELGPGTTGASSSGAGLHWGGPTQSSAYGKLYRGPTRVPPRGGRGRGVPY
# T1 sequence (Q16531 whole entry partner): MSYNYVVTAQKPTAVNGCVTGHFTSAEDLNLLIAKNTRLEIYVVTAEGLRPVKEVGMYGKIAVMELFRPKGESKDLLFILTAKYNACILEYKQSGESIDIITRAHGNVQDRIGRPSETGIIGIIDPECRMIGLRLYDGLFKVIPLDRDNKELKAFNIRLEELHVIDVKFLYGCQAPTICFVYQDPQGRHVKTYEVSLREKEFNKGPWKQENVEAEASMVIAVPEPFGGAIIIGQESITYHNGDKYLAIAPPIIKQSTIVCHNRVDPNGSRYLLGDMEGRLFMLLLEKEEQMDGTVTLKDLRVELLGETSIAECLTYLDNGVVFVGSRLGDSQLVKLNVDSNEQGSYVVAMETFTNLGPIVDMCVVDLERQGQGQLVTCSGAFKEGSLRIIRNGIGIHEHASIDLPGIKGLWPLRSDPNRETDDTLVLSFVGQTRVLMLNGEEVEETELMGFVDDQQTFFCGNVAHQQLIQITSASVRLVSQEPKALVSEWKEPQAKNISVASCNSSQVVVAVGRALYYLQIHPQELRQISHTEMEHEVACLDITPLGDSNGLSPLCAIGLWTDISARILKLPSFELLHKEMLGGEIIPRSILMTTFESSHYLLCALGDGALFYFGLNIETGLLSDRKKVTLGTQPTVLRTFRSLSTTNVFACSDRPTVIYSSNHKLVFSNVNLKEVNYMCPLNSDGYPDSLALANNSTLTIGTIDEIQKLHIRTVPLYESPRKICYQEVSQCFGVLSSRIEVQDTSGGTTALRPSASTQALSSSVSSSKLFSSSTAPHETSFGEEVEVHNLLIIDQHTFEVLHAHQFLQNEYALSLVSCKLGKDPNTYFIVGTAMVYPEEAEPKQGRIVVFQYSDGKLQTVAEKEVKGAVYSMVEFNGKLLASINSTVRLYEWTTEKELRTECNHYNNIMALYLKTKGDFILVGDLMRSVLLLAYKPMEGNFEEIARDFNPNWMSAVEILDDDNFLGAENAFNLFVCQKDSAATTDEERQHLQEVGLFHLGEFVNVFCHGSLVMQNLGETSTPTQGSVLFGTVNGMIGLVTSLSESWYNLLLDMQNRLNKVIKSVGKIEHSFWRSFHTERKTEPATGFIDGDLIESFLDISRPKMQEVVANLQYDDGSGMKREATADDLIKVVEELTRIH
row,Compound,degradation of Cyclin K (FIG. 2)
1,FC(F)(F)c1cnc(NCc2ccc(-c3ccccn3)cc2)nc1NC1COC1 [Compound 8],significantly induce the degradation of Cyclin K
2,OCc1cccc(-c2ccc(CNc3ncc(C(F)(F)F)c(OC4COC4)n3)cc2)n1 [Compound 18],significantly induce the degradation of Cyclin K
3,FC(F)(F)c1cnc(NCc2ccc(-c3ccccn3)cn2)nc1OC1COC1 [Compound 4],significantly induce the degradation of Cyclin K
4,Clc1cnc(NCc2ccc(-c3ccccn3)cc2)nc1OC1COC1 [Compound 3],significantly induce the degradation of Cyclin K
5,CS(=O)(=O)c1cncc(-c2nc(NCc3ccc(-c4ccccn4)cc3)ncc2C(F)(F)F)c1 [Compound 13],significantly induce the degradation of Cyclin K
6,FC(F)(F)c1cnc(NCc2ccc(-c3cccnc3)cc2)nc1OC1COC1 [Compound 5],significantly induce the degradation of Cyclin K

# Same assay, conditions: HEK293 cells; 0.1, 0.3, 1 μM; 6 h, 14 h, 24 h; compared with the control
row,Compound,degradation of Cyclin K (FIG. 1)
1,FC(F)(F)c1cnc(NCc2ccc(-c3ccccn3)cc2)nc1OC1COC1 [Compound 1],significantly induce the degradation of Cyclin K

# Test system: HGC27 (Human Gastric Cancer Cell)
# Assay: HGC27 cell growth inhibition (CellTiter-Glo)
# Format: cell-based
# Settings: Homo sapiens, HGC-27, 24 h, HGC27 cells, 24 hours, CellTiter-Glo; read-out: HGC27 CTG IC50
# Protocol: Biological Activity Detection of HGC27 (Human Gastric Cancer Cell) Cell Growth Inhibition
# This detection method is used to evaluate the cellular level biological activity of the compounds of the present disclosure.
# Harvest HGC27 cells (purchased from Chinese Academy of Sciences), resuspend in complete culture medium and adjust the cell density to 0.2×10^6 cells per ml. Add 100 μL of cell suspension to each well into a 96-well plate and incubate overnight in a 37° C., 5% CO2 incubator. Prepare the compound to be tested and add it to the cell plate so that the maximum concentration of the compound is 10 μM. Set 8 concentration points according to 3-fold dilution. At the same time, set up a 100% inhibition control well, that is, a well with no cells added and only an equal volume of complete culture medium; and a 0% inhibition control well, that is, a cell well with 0.1% DMSO added. The above cell plate was cultured at 37° C. and 5% CO2 for 24 hours. Take out the cell culture plate, add 25 μl CellTiter-Glo® Luminescent Cell Viability reagent (promega cat #G7573) to each well, incubate in the dark for 10 minutes, transfer 100 μL to a white plate, and use Molecular Devices SpectraMax i3 to detect chemiluminescence. Data processing uses the following formula to calculate the inhibition rate: compound inhibition rate=(0% inhibition of control well signal−compound treatment well signal)/(0% inhibition of control well signal−100% inhibition of control well signal)*100%. The calculated data were fitted using graphpad prism software with four parameters and the corresponding IC50 was calculated.
# According to the above detection method, the biological activity of the compound of the present disclosure was evaluated at the cellular level. Wherein, CR8 is a literature compound, which was purchased from Shanghai Bide Pharmaceutical.
row,IC50 [µM],Compound
1,0.281,OCc1cccc(-c2ccc(CNc3ncc(C(F)(F)F)c(OC4COC4)n3)cc2)n1 [Compound 18]
2,0.385,FC(F)(F)c1cnc(NCc2ccc(-c3ccccn3)cc2)nc1OC1COC1 [Compound 1]
3,0.307,CS(=O)(=O)c1cncc(-c2nc(NCc3ccc(-c4ccccn4)cc3)ncc2C(F)(F)F)c1 [Compound 13]
